Reference: ChEMBL document CHEMBL1268819, “Design, synthesis, and biological evaluation of 4-(5-nitrofuran-2-yl)prop-2-en-1-one derivatives as potent antitubercular agents” (Bioorg Med Chem Lett, 2010)
Converted amounts (≈) assume the structure as drawn.

Columns and labels:
[1] = Toxicity in African green monkey Vero cells; type: cell-based; details: chlorocebus sabaeus
[2] = system: Mycobacterium tuberculosis; assay: Antitubercular activity against Mycobacterium tuberculosis H37Rv by resazurin microtiter assay; type: functional
[3] = Selectivity index, ratio of CC50 for African green monkey Vero cells to MIC for Mycobacterium tuberculosis H37Rv; type: functional

Compound | CC50 [1] | MIC [2] | Selectivity Index [3]
O=C(/C=C/c1ccc([N+](=O)[O-])o1)c1ccc(OCc2ccccc2)cc1 | 515 µM | 3.29 µM (≈ 1.15 µg/mL) | –
O=C(/C=C/c1ccc([N+](=O)[O-])o1)c1cccs1 | 742 µM | 5.86 µM (≈ 1.46 µg/mL) | –
O=C(/C=C/c1ccc([N+](=O)[O-])s1)c1ccc(N2CCCCC2)cc1 | 404 µM | 15.6 µM (≈ 5.35 µg/mL) | –
O=C(/C=C/c1ccc([N+](=O)[O-])o1)c1ccc(N2CCN(Cc3ccccc3)CC2)cc1 | 299 µM | > 31.7 µM | –
O=C(/C=C/c1ccc([N+](=O)[O-])o1)c1ccc(OCc2ccc(F)cc2)cc1 | 430 µM | 19.8 µM (≈ 7.27 µg/mL) | –
O=C(/C=C/c1ccc([N+](=O)[O-])o1)c1ccc(OCc2ccc(OC(F)(F)F)cc2)cc1 | 335 µM | 1.66 µM (≈ 0.719 µg/mL) | –
NNC(=O)c1ccncc1 [ISONIAZID] | > 500 µM | 1.8 µM (≈ 0.247 µg/mL) | –
O=C(/C=C/c1ccc([N+](=O)[O-])o1)c1ccc(Cl)cc1 | 558 µM | 4.5 µM (≈ 1.25 µg/mL) | –
COc1ccc(COc2ccc(C(=O)/C=C/c3ccc([N+](=O)[O-])o3)cc2)cc1 | 311 µM | 1.85 µM (≈ 0.702 µg/mL) | –
O=C(/C=C/c1ccc([N+](=O)[O-])o1)c1ccc(N2CCCCC2)cc1 | 349 µM | 0.19 µM (≈ 0.062 µg/mL) | >1800
O=C(/C=C/c1ccc([N+](=O)[O-])o1)c1ccc(OCc2ccc(Cl)cc2Cl)cc1 | 340 µM | > 46.6 µM | –
COc1cc(C(=O)/C=C/c2ccc([N+](=O)[O-])o2)cc(OC)c1OC | 384 µM | 6.06 µM (≈ 2.02 µg/mL) | –
O=C(/C=C/c1ccc([N+](=O)[O-])o1)c1ccc(Br)cc1 | 354 µM | 3.88 µM (≈ 1.25 µg/mL) | –
CCN(CC)c1ccc(C(=O)/C=C/c2ccc([N+](=O)[O-])o2)cc1 | 334 µM | 0.48 µM (≈ 0.151 µg/mL) | –
O=C(/C=C/c1ccc([N+](=O)[O-])o1)c1ccco1 | 776 µM | 8.28 µM (≈ 1.93 µg/mL) | –
O=C(/C=C/c1ccc([N+](=O)[O-])o1)c1ccc(N2CCOCC2)cc1 | 387 µM | 0.38 µM (≈ 0.125 µg/mL) | –
COc1ccc(C(=O)/C=C/c2ccc([N+](=O)[O-])o2)cc1 | 571 µM | 3.84 µM (≈ 1.05 µg/mL) | –
O=C(/C=C/c1ccc([N+](=O)[O-])o1)c1ccc(OCc2cccc(Cl)c2)cc1 | 307 µM | 6.1 µM (≈ 2.34 µg/mL) | –
Cc1ccc(C(=O)/C=C/c2ccc([N+](=O)[O-])o2)cc1 | 439 µM | 4.35 µM (≈ 1.12 µg/mL) | –
O=C(/C=C/c1ccc([N+](=O)[O-])o1)c1ccccc1 | 444 µM | 5.51 µM (≈ 1.34 µg/mL) | –
C=C(C)COc1ccc(C(=O)/C=C/c2ccc([N+](=O)[O-])o2)cc1 | 393 µM | 5.59 µM (≈ 1.75 µg/mL) | –
O=C(/C=C/c1ccc([N+](=O)[O-])o1)c1ccc(F)cc1 | 463 µM | 4.17 µM (≈ 1.09 µg/mL) | –
O=C(/C=C/c1ccc([N+](=O)[O-])o1)c1ccc(N2CCN(C/C=C/c3ccccc3)CC2)cc1 | 343 µM | > 32.7 µM | –
O=C(/C=C/c1ccc([N+](=O)[O-])o1)c1ccc(Cl)cc1Cl | 417 µM | 14.1 µM (≈ 4.41 µg/mL) | –
O=C(/C=C/c1ccco1)c1ccc(F)cc1 | 661 µM | > 93.9 µM | –
O=C(/C=C/c1ccc([N+](=O)[O-])o1)c1cc2ccccc2oc1=O | 360 µM | 29.9 µM (≈ 9.32 µg/mL) | –
